Where two headings read alike, the source gives them in different places.
Legend:
[1] = molecular target: Beta Secretase enzyme (BACE) (Homo sapiens, UniProt P56817); test: In vitro enzymatic BACE FRET (fluorescence resonance energy transfer) assay; format: biochemical; conditions: average IC50, enzyme assay; read-out: BACE 1 FRET assay
Method in brief: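 Fluorescence read after Tris quench to neutral pH. Reaction: 50 nM fluorophore/quencher peptide substrate, 1 h, in 0.05 M acetate pH 4.2, 10% DMSO final, 100 uM genapol.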

[2] = test system: Aβ40 in conditioned medium of cells stably expressing Amyloid Precursor Protein (APP); test: In vitro BACE cell-based assay (Aβ40 in conditioned medium, sandwich ELISA); conditions: Homo sapiens, read-out: HEK cell assay
Method in brief: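 Conditioned medium from stably APP-expressing cells treated with compound dose series is assayed for Aβ40 by sandwich ELISA with time-resolved fluorescence detection. IC50 is calculated from percent inhibition of Aβ40 against compound concentration.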

[3] = HEK293, average IC50, HEK cells

Beta Secretase enzyme (BACE), sequence (P56817 46-501, species assumed): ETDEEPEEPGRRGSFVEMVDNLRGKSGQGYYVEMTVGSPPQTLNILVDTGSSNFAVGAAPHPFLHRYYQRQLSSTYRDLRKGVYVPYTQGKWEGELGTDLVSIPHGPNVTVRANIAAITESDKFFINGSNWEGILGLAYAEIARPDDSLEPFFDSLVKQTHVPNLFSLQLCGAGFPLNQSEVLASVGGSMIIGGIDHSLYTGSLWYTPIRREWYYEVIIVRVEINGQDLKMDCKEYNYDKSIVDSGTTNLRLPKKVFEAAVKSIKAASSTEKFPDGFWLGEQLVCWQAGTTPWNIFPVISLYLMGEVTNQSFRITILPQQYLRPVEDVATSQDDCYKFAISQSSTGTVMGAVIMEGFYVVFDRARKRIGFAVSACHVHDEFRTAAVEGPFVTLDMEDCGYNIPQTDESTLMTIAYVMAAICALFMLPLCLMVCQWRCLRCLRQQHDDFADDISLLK

IC50 [1] | IC50 [2, 3] | IC50 ([2]; HEK293, average IC50) | SMILES
0.0016 µM | 0.0063 µM | – | Cn1cc(-c2cc(F)c3c(c2)[C@]2(COC(N)=N2)c2cc(-c4cncc(C#N)c4)ccc2O3)cn1 [Example 554, 5-((4S)-2-amino-5′-fluoro-7′-(1-methyl-1H-pyrazol-4-yl)spiro[1,3-oxazole-4,9′-xanthen]-2′-yl)-3-pyridinecarbonitrile]
0.0237 µM | 0.335 µM | – | NC1=N[C@@]2(CO1)c1cc(-c3ccc(F)cc3)ccc1Oc1cnc(-c3ccnc(F)c3)cc12 [Example 395, (5S)-7-(4-fluorophenyl)-3-(2-fluoro-4-pyridinyl)spiro[chromeno[2,3-c]pyridine-5,4′-[1,3]oxazol]-2′-amine]
2.09 µM | – | ≥ 10 µM | NC1=N[C@]2(CO1)c1cc(-c3cccnc3F)ccc1Oc1c2cc(Br)nc1F [Example 736, (5R)-3-bromo-1-fluoro-7-(2-fluoro-3-pyridinyl)spiro[chromeno[2,3-c]pyridine-5,4′-[1,3]oxazol]-2′-amine]
0.0037 µM | 0.074 µM | – | NC1=N[C@@]2(CO1)c1cc(-c3cncnc3)ccc1Oc1c(F)cc(-n3cccn3)cc12 [Example 692, (4S)-4′-fluoro-2′-(1H-pyrazol-1-yl)-7′-(5-pyrimidinyl)spiro[1,3-oxazole-4,9′-xanthen]-2-amine]
0.6 µM | 10 µM | – | N#Cc1ccncc1-c1ccc2c(c1)[C@@]1(COC(N)=N1)c1cc(Cl)ncc1O2 [Example 655, 3-((5S)-2′-amino-3-chlorospiro[chromeno[2,3-c]pyridine-5,4′-[1,3]oxazol]-7-yl)-4-pyridinecarbonitrile]

Second part, the compound before the results:

SMILES | IC50 [1] | IC50 [2, 3] | IC50 ([2]; HEK293, average IC50)
NC1=N[C@@]2(CS1)c1cc(-c3cccnc3)c(F)cc1Oc1c(F)cc(C3=CCCOC3)cc12 [Example 883, (4S)-7′-(5,6-dihydro-2H-pyran-3-yl)-3′,5′-difluoro-2′-(3-pyridinyl)spiro[1,3-thiazole-4,9′-xanthen]-2-amine] | 0.0003 µM | 0.05 µM | –
NC1=NC2(CS1)c1cc(-c3cccnc3F)ccc1Oc1c2cc(C2=CCOCC2)nc1F (stereo not drawn) [Example 638, 3-(3,6-dihydro-2H-pyran-4-yl)-1-fluoro-7-(2-fluoro-3-pyridinyl)spiro[chromeno[2,3-c]pyridine-5,4′-[1,3]thiazol]-2′-amine] | 0.0006 µM | 0.004 µM | –
CC1(C#Cc2ccc3c(c2)[C@@]2(COC(N)=N2)c2cc(C4=CCOCC4)cnc2O3)COC1 [Example 462, (5S)-3-(3,6-dihydro-2H-pyran-4-yl)-7-((3-methyl-3-oxetanyl)ethynyl)spiro[chromeno[2,3-b]pyridine-5,4′-[1,3]oxazol]-2′-amine] | 0.0059 µM | 0.0189 µM | –
NC1=N[C@]2(CO1)c1cc(-c3cccnc3F)c(F)cc1Oc1c(F)cc(C3=CCCOC3)cc12 [Example 866, (4R)-7′-(5,6-dihydro-2H-pyran-3-yl)-3′,5′-difluoro-2′-(2-fluoro-3-pyridinyl)spiro[1,3-oxazole-4,9′-xanthen]-2-amine] | 0.0623 µM | 1.72 µM | –
NC1=N[C@]2(CO1)c1cc(C3=CCOCC3)cnc1Oc1ccc(-c3cccnc3F)c(F)c12 [Example 346, (5R)-3-(3,6-dihydro-2H-pyran-4-yl)-6-fluoro-7-(2-fluoro-3-pyridinyl)spiro[chromeno[2,3-b]pyridine-5,4′-[1,3]oxazol]-2′-amine] | 0.0008 µM | – | 0.0067 µM
Cc1ccnc(F)c1-c1ccc2c(c1)[C@@]1(COC(N)=N1)c1cc(N3CCOC(C)(C)C3)cnc1O2 [Example 482, (5S)-3-(2,2-dimethyl-4-morpholinyl)-7-(2-fluoro-4-methyl-3-pyridinyl)spiro[chromeno[2,3-b]pyridine-5,4′-[1,3]oxazol]-2′-amine] | 0.0034 µM | 0.0144 µM | –
CC1(C)C=C(c2cnc3c(c2)[C@]2(CSC(N)=N2)c2cc(-c4cccc(C#N)c4F)ccc2O3)CCO1 [Example 779, 3-((5S)-2′-amino-3-(6,6-dimethyl-3,6-dihydro-2H-pyran-4-yl)spiro[chromeno[2,3-b]pyridine-5,4′-[1,3]thiazol]-7-yl)-2-fluorobenzonitrile] | 0.0048 µM | – | 0.319 µM

Source: patent US8883782B2, “Spiro-tetracyclic ring compounds as beta-secretase modulators and methods of use” (Amgen Inc., priority 2010, dated 2014)
